These results are taken from US6534070B1, “Composition with azelaic acid” (Schering Aktiengesellschaft, priority 1997, dated 2003).

The data set is classed as in vitro ADME, hairless mice (MF1 hr/hr Ola/Hsd). Conditions: MF1 hr/hr Ola/Hsd (hairless), mouse, 24 h. The text has this: The percutaneous resorption of azelaic acid was examined from hydrogel formulations according to the invention in comparison to Skinoren^(R) cream. The purpose of the study was to describe the bioavailability of azelaic acid in the skin, the penetration of azelaic acid through the skin and the dermal metabolism of azelaic acid. In this respect, various preparations that contain ^14C-labeled azelaic acid were applied in the in vitro model of the FRANZ diffusion chamber on the intact complete skin of hairless mice (MF1 hr/hr Ola/Hsd; supplier: Winkelmann, Germany). An amount of 10 to 15 mg of the following compositions was applied to a skin area of 2 cm^2:
The time behavior of the ^14C-azelaic acid was measured in the acceptor medium (Hepes Hanks Balanced Salt Solution: HHBSS), which flows along under the skin, at two-hour intervals over a period of 24 hours. In addition, at the end of each experiment, the radioactivity on the skin surface, in the stratum corneum and in the remaining skin was determined. […]
The ^14C-azelaic acid found in the skin at the end of the experiment was metabolized only to a proportion of 3 to 11%. Therefore, the data on the radioactivity in the skin can virtually be equated to the concentration of unchanged azelaic acid.

SMILES strings stand for the structures.

In the case of `O=C(O)CCCCCCCC(=O)O` [^14C-azelaic acid, azelaic acid], the “proportion of 14C-azelaic acid found in the skin that was metabolized” value is given as 3 to 11%.
